Results on 1 substance are retold here after patent US20130078268A1, “VACCINE COMPOSITIONS AND METHODS OF USE THEREOF” (priority 2010, published 2013).

Where no end group is shown, it is not given here. [ ]: non-standard residue; d: D form. pGlu = O=C1CC[C@@H](C(=O)O)N1

This experiment deals with peptide of SEQ ID NO: 1. The experiment is described as follows: Titer of antibody to the peptide of SEQ ID NO: 1 by peptide-based ELISA in serum of immunised mice. It is filed as in vivo. The conditions noted are these: male C57B1 mice; three subcutaneous injections of 100 μg peptide + 100 μg calcium phosphate nanoparticles at 3-week intervals; two weeks after the last injection. As for the experimental part: Four male mice (8-week-old, C57B1) were given, three subcutaneous injections of vaccine composition comprising 100 μg of the peptide SEQ ID NO: 1 and 100 μg of calcium phosphate nanoparticles at 3-week intervals. As controls, an additional four mice received the vehicle. Two weeks after the last injection, the titer of antibody to the peptide of SEQ ID NO: 1 was assessed by the peptide-based enzyme-linked immunosorbent assay (ELISA). Samples were run in triplicate on ELISA plates coated with the peptide of the SEQ ID NO: 1, which was used as the immunogen. The peptide was bound in solid phase on high binding 96 well plates. Serum was diluted 1:500 and then serially diluted to a final dilution of 1:64,000. Detection of the antibody was obtained using an HRP conjugated secondary antibody (1:5,000) and TMB micro well peroxidase substrate.
Four male mice (8-week-old, C57B1) were given three intraperitoneal injections of vaccine composition of example 3 at 3-week intervals. As controls, an additional four mice received the vehicle. Two weeks after the last injection, the titer of antibody to the peptide of SEQ ID NO: 1 was assessed by the peptide-based enzyme-linked immunosorbent assay (ELISA) as described in the example 4. […] Thus, the administering vaccine compositions of the invention elicited protective immunity in animals against endogenous peptide of SEQ ID NO: 1.

Turning to “pGlu-Pro-Pro-Gly-Gly-Ser-Lys-Val-Ile-Leu-Phe ([pGlu]PPGGSKVILF; listed as Homo sapiens) [peptide SEQ ID NO: 1]”, the “geometric mean titer of anti-SEQ ID NO: 1 antibodies in serum” value was “about 70,000”.
